Earlier results as cited in US9226906B2, “Method and nutritional supplement for enhancing weight gain of a mammal” (Supragenix, LLC, priority 2013, dated 2016).

Biological target: CB1 (Homo sapiens, UniProt P21554)
Sequence (P21554 whole entry, species assumed): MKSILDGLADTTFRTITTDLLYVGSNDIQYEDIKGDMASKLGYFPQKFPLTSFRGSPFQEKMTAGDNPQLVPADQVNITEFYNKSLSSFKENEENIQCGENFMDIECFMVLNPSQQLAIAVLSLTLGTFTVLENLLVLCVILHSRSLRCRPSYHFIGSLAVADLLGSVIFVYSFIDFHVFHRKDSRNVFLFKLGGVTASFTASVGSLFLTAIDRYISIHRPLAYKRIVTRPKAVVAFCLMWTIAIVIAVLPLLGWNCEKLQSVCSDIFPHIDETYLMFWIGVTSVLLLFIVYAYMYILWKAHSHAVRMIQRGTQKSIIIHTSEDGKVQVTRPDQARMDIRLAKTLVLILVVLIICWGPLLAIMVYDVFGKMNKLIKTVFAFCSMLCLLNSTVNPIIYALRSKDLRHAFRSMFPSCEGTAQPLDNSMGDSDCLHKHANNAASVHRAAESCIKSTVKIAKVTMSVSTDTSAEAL

## CCC/C=C\CC/C=C/C=C/C(=O)NCC(C)C [Dodeca-2E,4E,8Z-trienoic acid isobutylamide]
  activating CB1: effective in activating CB1

## CCCCCCC/C=C/C=C/C(=O)NCC(C)C [Dodeca-2E,4E-dienoic acid isobutylamide]
  activating CB1: effective in activating CB1

## CC#CC#CCC/C=C\C=C\C(=O)NCC(C)C [Dodeca-2E,4Z-diene-8,10-diynoic acid isobutylamide]
  activating CB1: effective in activating CB1

## CC#CC#CCCCC/C=C/C(=O)NCC(C)CC (centres unmarked) [Dodeca-2E-ene-8,10-diynoic acid 2-methylbutylamide]
  activating CB1: effective in activating CB1

## C#CC#CC/C=C\CCCCC/C=C/C(=O)NCC(C)C [Pentadeca-2E,9Z-diene-12,14-diynoic acid isobutylamide]
  activating CB1: effective in activating CB1

## C#CC#CCCCCC=CC(=O)NCC(C)C [Undeca-2-ene-8,10-diynoic acid isobutylamide]
  activating CB1: effective in activating CB1

## C#CC#CCC/C=C/C=C\C(=O)NCC(C)C [Undeca-2Z,4E-diene-8,10-diynoic acid isobutylamide]
  activating CB1: effective in activating CB1

## Dodeca-2E,4E,8Z,10E/Z-tetraenoic acid isobutylamides
  activating CB1: effective in activating CB1
